In patent US20250269072A1, “PROCESSES FOR PREPARING RADIOLABELLED CONJUGATES” (CENTENARY INSTITUTE OF CANCER MEDICINE AND CELL BIOLOGY, priority 2021, published 2025):

Legend:
Format in all cases: in vivo
[1] = In-human study of ^68Ga-CDI: safety and tolerability; settings: 5 subjects
Excerpt: This open label, single arm interventional study recruited subjects with histologically or cytologically confirmed solid malignancy with at least one measurable lesion >2 cm. The study was approved by the South Eastern Sydney Local Health District Human Research Ethics committee (2019/ETH04821) and all subjects signed an informed consent form. […] Within 28 days of undergoing the study subjects were screened to ensure they met inclusion and exclusion criteria and written consent obtained. Although not an inclusion criteria for participation in this study, all patients also underwent an FDG PET CT between 3-11 days prior to CDI PET CT as part of standard of care.
(§1) Subjects were encouraged to be well orally hydrated prior to ^68Ga-CDI administration, otherwise there was no preparation required. Two intravenous cannulas were placed (one for administration of ^68Ga-CDI and the other blood sampling during the study). Immediately prior to ^68Ga-CDI administration clinical assessment of participants was performed, vital signs (blood pressure, heart rate, respiratory rate, arterial oxygen saturation and temperature) measured and a 12-lead electrocardiogram (ECG) obtained and QTc calculated according to Bazett's formula to confirm eligibility. ^68Ga-CDI was administered as an intravenous bolus.
(§2) During and immediately following completion of the scanning protocol, subjects were clinically assessed for adverse reactions and vital signs measured. Blood was collected for venous radioactivity measurements at 1, 2 and 3 hours following ^68Ga-CDI administration. Subjects were asked to void between 1.5 to 2 h and 2.75 to 3 h after ^68Ga-CDI administration, urine collected, the volume measured, and an aliquot counted in a gamma counter to determine activity concentration. Following completion of the scanning protocol, ECG was recorded, and blood collected for biochemical and haematological assessment.
On the day following the ^68Ga-CDI PET CT subjects were clinically assessed for adverse reactions, vital signs, ECG obtained, and blood collected for biochemical and haematological assessment. […]

[2] = In-human study of ^68Ga-CDI: biodistribution (PET CT, blood, urine)
Method: as §1
(§3) Eight serial PET scans were then performed from skull vertex to the proximal femora. The first PET scan commenced immediately following administration of ^68Ga-CDI, with subsequent scans commencing at approximately 7, 17, 29, 47, 64, 120 and 180 minutes after administration (+/−5 minutes). All scans were performed on a Phillips ingenuity TF 128 PET CT scanner (Philips Medical Systems, Cleveland) with acquisition times increasing for each subsequent scan ranging from 30 s/bed (immediately after administration) to 240 s/bed (at 180 minutes after administration) to compensate for excretion and decay. All PET scans were reconstructed using CT attenuation correction with a time of flight, list-mode, blob-based, ordered subsets maximum likelihood expectation maximization algorithm (BLOB-OS-TF) (reconstructed voxel size 4×4×4 mm).
Immediately prior to the scan commencing at approximately 47 minutes post administration a low-dose, non-contrast CT of the same region was performed for attenuation correction and localisation (of the first six scans during which time the patient had not moved) (44-120 mAs, 120-140 kV adjusted for body weight and body mass index, iDose 3 iterative reconstruction, reconstructed voxel size 1.17×1.17×3 mm). Ultra-low dose non-contrast CT (25 mAs, 100 kV, filtered back projection reconstruction, reconstructed voxel size 1.17×1.17×3 mm) was performed for attenuation correction immediately prior to the 120 minute and 180 minute PET scans.
as §2
(§4) For analysis of uptake and biodistribution in normal tissues and organs, spherical volumes of interest (VOIs) were drawn on the Digital Imaging and Communications in Medicine (DICOM) ^68Ga-CDI-PET emission data on a workstation (IntelliSpace Portal, V5.0.2.60000, Philips Medical System, Best, The Netherlands) by an experienced nuclear medicine physician over clearly tumor-free regions of organs. VOI diameter varied depending on organ size but where possible was at least 10 mm. Spherical VOIs were also drawn over all tumor deposits greater than 10 mm in diameter. These VOIs were replicated across all time points and the mean, maximum and standard deviation of the activity concentration (Bq/mL) of all VOIs at each time point was recorded. Activity concentration was used to calculate the % injected activity (% IA) for organs and tissues based on the masses of source organs for standard phantom male and female models (Stabin & Siegel, Health Phys. 2003; 85:294-310). Mean, maximum and standard deviation of the SUV for each VOI was also a calculated from the activity concentration using the slope intercept stored with the DICOM CDI PET emission data.

tumor deposits = test: In-human study of ^68Ga-CDI: tumor uptake
Method: as §3, §4

Structure (SMILES): O=C(O)CNC(=O)[C@H](CSCC(=O)Nc1ccc([As](O)O)cc1)NC(=O)CC[C@H](NC(=O)CCC1C(=O)[O][68Ga]2[O]C(=O)CN3CCN(CCN1CC3)CC(=O)[O]2)C(=O)O (stereo partly shown) [^68Ga-NODAGA-GSAO]
- adverse or pharmacologic effects [1]: no adverse or clinically detectable pharmacologic effects
- vital signs, laboratory studies, electrocardiograms [1]: No significant changes
- tolerability ([1]; 205±4.1 MBq i.v.): well tolerated
- activity remaining in the blood pool, average ([2]; 1 hour): 12.2 % IA
- average SUV kidneys ([2]; 1 hour post injection): 5.3 SUV
- activity remaining in the blood pool, average ([2]; 2 hours): 8.8 % IA
- average SUV kidneys ([2]; 2 hours post injection): 4.9 SUV
- activity remaining in the blood pool, average ([2]; 3 hours): 7.7 % IA
- average SUV kidneys ([2]; 3 hours post injection): 4.0 SUV
- total activity excreted in urine ([2]; by 90 minutes): 39±18%
- tumor uptake SUVmax (tumor deposits; breast carcinoma): 2.5
- tumor uptake SUVmax (tumor deposits; metastatic colorectal carcinoma): 4.4
- tumor uptake SUVmax (tumor deposits; metastatic cutaneous squamous cell carcinoma): 6.5
- tumor uptake SUVmax (tumor deposits; metastatic ovarian carcinoma): 2.7
- tumor uptake SUVmax (tumor deposits; squamous cell carcinoma of the oesophagus): 5.7
- tumor retention (tumor deposits; tumor in 4 of the 5 patients): prolonged retention throughout the duration of imaging
